This is an account of results in patent US20250043349A1, “DEORPHANIZING ODORS USING SINGLE CELL SEQUENCING” (PRESIDENT AND FELLOWS OF HARVARD COLLEGE, priority 2021, published 2025).

For assay [1], the system named is OSN subtypes (odorant receptors, ORs). Description: Act-Seq: scSeq of olfactory epithelium after two-hour odor exposure (IEG expression, activated ORs, activation score). Type of assay: in vivo, mouse. On the procedure:
Act-Seq (Wu et al., 2017) was performed following odor exposure to quantify odor-evoked responses in each OSN subtype (defined by their expressed OR) across the entire OR repertoire. Mice were habituated to a reversed light cycle for at least for 1 week before odor exposure, transferred to a new disposable cage with regular bedding/food and kept overnight in a satellite animal facility. On the experimental day, each mouse was first transferred to a new empty disposable cage during the dark cycle and habituated for 20 minutes. Empty cages were used to avoid any activation by odorants present within the environments in which the mice were housed. Odors were added to a piece of filter paper (100 μL of odorant) in a 35 mm petri dish and a cotton ball (200 μL of odorant) and placed in each cage. After 2 hours, mice were euthanized, and dissociation was performed as described below. Odors used in this study were as follows. Dipropylene glycol (DPG, control solvent), and 10% of acetophenone, octanal, 2-hydroxy acetophenone, 4-methyl acetophenone, and methyl salicylate. As a control, mice were exposed to DPG alone for 30 min. This control condition was used to account for any drift in transcriptomes during the overnight housing and habituation periods prior to odor exposure and designed to capture the transcriptome in the state it would have been in the odor-exposed animals prior to odor exposure. […] Act-Seq was also performed using lower concentrations of acetophenone (1.0, 0.1, 0.01%) and 2-hydroxy acetophenone (0.1%, 0.01%). All odor dilutions were made with DPG, and all odors and DPG were obtained from Sigma. To assess the persistence of any transcriptional changes observed as a result of odor exposure, a cohort of mice was exposed to acetophenone or DPG for 2 hours, transferred to new clean regular home cages, and subjected to scSeq after an additional 22 hours.
The main olfactory epithelium was dissected in Earle's Balanced Salt Solution (EBSS, pre-treated with carbogen for at least 5 minutes before each use, Worthington), then transferred to a round-bottomed glass dish containing 750 μL of papain solution (one vial of Papain (Worthington) dissolved in 5 mL of EBSS and then equilibrated 10 minutes at 37° C.) and 100 μL of DNase solution (one vial of DNase-I (Worthington) dissolved in 500 μL of EBSS). Bone was removed from the epithelium under a dissecting microscope and the resulting epithelial tissue was placed in a 5 mL tube (Becton Dickinson) with an additional 1.75 mL of Papain solution and 200 μL of DNase-I solution and rocked gently for-60 minutes at 37° C. The tissue was then gently triturated with a 5 mL pipette 10-15 times, passed through a 40 μm cell strainer (Becton Dickinson), and washed with 1 mL of Hibernate-A medium containing 10% Fetal Bovine Serum (FBS. GIBCO). Filtered cells were transferred to a new 5 mL tube and centrifuged 5 minutes at 300×g. The supernatant was decanted, the cells were washed once with 4 mL Hibernate-A containing 10% FBS and resuspended in 1 mL Hibernate-A containing 0.2% FBS. Importantly, each of the solutions above contained transcriptional inhibitors (5 μg/mL of Actinomycin D, 10 μg/mL of Anisomycin and 10 μM of Triptolide, all obtained from Sigma) for all experiments, especially the Act-Seq experiments, except where noted.
OSN subtypes that were responsive to odorants were identified via a two-step process. First, individual OSNs (as defined by the expressed OR) were determined as activated based on their mean z-scored immediate early genes (IEG) expression. A set of 10 IEGs were used (Btg2, Egr1, Fos, Fosb, Gm13889, Junb, Nr4a1, Nr4a2, Pcdh10, and Srxn1). […] The set of 10 IEGs was used since even though all of the IEGs were specific to acute activation by odors, they were still only detected in a minority of cells due to the sparse nature of scSeq. […]

For assay [2], the system named is Olfr923. Description: Act-Seq activation score in OSNs expressing Olfr923. Type of assay: in vivo, mouse. The conditions noted are these: acetophenone vs 2-HA. How it is done:
Act-Seq (Wu et al., 2017) was performed following odor exposure to quantify odor-evoked responses in each OSN subtype (defined by their expressed OR) across the entire OR repertoire. Mice were habituated to a reversed light cycle for at least for 1 week before odor exposure, transferred to a new disposable cage with regular bedding/food and kept overnight in a satellite animal facility. On the experimental day, each mouse was first transferred to a new empty disposable cage during the dark cycle and habituated for 20 minutes. Empty cages were used to avoid any activation by odorants present within the environments in which the mice were housed. Odors were added to a piece of filter paper (100 μL of odorant) in a 35 mm petri dish and a cotton ball (200 μL of odorant) and placed in each cage. […]
The remaining 169 activation genes that were also considered as HVGs often had weak loadings across multiple GEPs. […] To summarize the effects of odor activation across this set of activation genes, the TPT-expression of these activation genes were z-scored (using means and standard deviations for these genes in the control, acetophenone, and octanal datasets, identified by subsampling equal numbers of cells across all ORs expressed in at least 6 cells across 100 restarts). […] PCA was performed on the differences in z-scored activation gene expression between control and odor conditions. […]

Setting [3] is: acetophenone concentration series 0.01-10%.

For the molecule `CC(=O)c1ccccc1` [acetophenone], the “percent of cells activated per OR on average, 5 partially activated ORs identified only by phospho-S6” value in assay [1] (Act-Seq, ORs identified as acetophenone receptors) is 43.8%. Also, the “overlap between ORs activated by ACE and OCT, odds ratio” value in assay [1] (Fisher's exact test, overlap at chance levels) is reported as 1.42. In assay [1] (setting [3]), the “activation scores of acetophenone-responsive OSNs with increasing concentrations” value is recorded as “tonically increased” and the “number of ORs activated with increasing concentrations” value is on record as “tonically increased”. Besides, in assay [1] (odor vs control (DPG) conditions), the “z-scored expression of 10 immediate early genes (IEGs) for each OSN subtype, odor vs control” value is listed as “higher in the odor conditions”. The “activation scores for OSNs expressing Olfr923” value in assay [2] was “higher for acetophenone than 2-HA”.
